Assay results as given in PubChem BioAssay (NCI).
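Five compound concentrations were applied to cells in 96-well plates for 48 hours; endpoints were derived by simple linear interpolation of the resulting dose-response curve. At the GI50, growth is halved. TGI marks complete inhibition of growth.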

Each compound was assayed on NCI-H522 lung (assay: inhibition of tumour cell growth, NCI panel, 48 h).

SMILES | TGI | GI50
O=C(Nc1ccc([N+](=O)[O-])cc1[N+](=O)[O-])C(=O)C(C(=O)c1ccc2ccccc2c1)C1OC(=O)c2ccccc21 (stereo not drawn) | 22.8 µM | 
COc1cc(/C=C/C(=O)Oc2ccc(NC(C)=O)cc2)ccc1C(=O)O/C=C/c1ccccc1 | > 100 µM | 
COc1ccc2c(c1)CCCN2CCCCCCCCCCN(CCC(C)C)CCC(C)C | 5.68 µM | 
O=P1(c2ccccc2)Nc2ccccc2SSc2ccccc2N1 | 29 µM | 
COc1ccc(-c2nc3ncccn3c2-c2ccc(SC)cc2)cc1 | 0.502 µM | 
C[C@H]1C(=O)O[C@@H]2CCN3CC=C(COC(=O)[C@](C)(O)[C@@]1(C)O)[C@H]23 | > 100 µM | 
N=C1C(=N)c2ccccc2-c2ccccc21.N=C1C(=N)c2ccccc2-c2ccccc21.N=C1C(=N)c2ccccc2-c2ccccc21.[Cl-].[Ru+2] | 2.84 µM | 
CN(C)C(=O)/C=C/c1c[nH]c(=O)[nH]c1=O | > 500 µM | 
CN(C)CCCn1cnc2cc(Cl)c(Cl)cc21 | > 100 µM | 
NCCCn1c2c(c3ccc([N+](=O)[O-])cc3c1=O)C(=O)c1ccccc1-2 | > 50 µM | 0.462 µM
CCc1nc(N)nc(N)c1-c1ccc([N+](C)(C)C)cc1 | > 100 µM | 
Cc1cc2c(cc1C(=O)c1ccc(N)cc1)OCO2 | 54.4 µM | 
NCCc1cc(O)c(O)cc1O | 3.44 µM | 1.53 µM
COc1ccc(C2=C3SC=c4ccccc4=C3ON=C2c2ccccc2)cc1 | > 100 µM | 
CC(=O)NNc1nc(-c2ccc([N+](=O)[O-])cc2)c(C#N)c(=O)n1C | 45.6 µM | 
CCCOC(=O)CNC(=O)OC(C)(C)C | > 100 µM | 
CN(C)CCNC(=O)c1cccc2ccc(-c3ccc(F)cc3)nc12 | 16.9 µM | 

Each compound was assayed on ACHN renal (assay: inhibition of tumour cell growth, NCI panel, 48 h).

SMILES | TGI | GI50
Nc1n[nH]c(=O)c2c1c(I)cn2C1OC(CO)C(O)C1O (stereo not drawn) | > 100 µM | 
O=C(Nc1ccc([N+](=O)[O-])cc1[N+](=O)[O-])C(=O)C(C(=O)c1ccc2ccccc2c1)C1OC(=O)c2ccccc21 (stereo not drawn) | 73.2 µM | 
COc1ccc2c(c1)CCCN2CCCCCCCCCCN(CCC(C)C)CCC(C)C | 22.8 µM | 
COc1ccc(-c2nc3ncccn3c2-c2ccc(SC)cc2)cc1 | 41 µM | 
C[C@H]1C(=O)O[C@@H]2CCN3CC=C(COC(=O)[C@](C)(O)[C@@]1(C)O)[C@H]23 | > 100 µM | 
N=C1C(=N)c2ccccc2-c2ccccc21.N=C1C(=N)c2ccccc2-c2ccccc21.N=C1C(=N)c2ccccc2-c2ccccc21.[Cl-].[Ru+2] | 3.29 µM | 
CCOC(=O)c1c2c(n(Cc3ccccc3)c1C)C(=O)C(=O)c1ccccc1-2 | 1.92 µM | 
CN(C)CCCn1cnc2cc(Cl)c(Cl)cc21 | > 100 µM | 
NCCCn1c2c(c3ccc([N+](=O)[O-])cc3c1=O)C(=O)c1ccccc1-2 | 0.0885 µM | 0.0198 µM
CCc1nc(N)nc(N)c1-c1ccc([N+](C)(C)C)cc1 | > 100 µM | 
Cc1cc2c(cc1C(=O)c1ccc(N)cc1)OCO2 | > 100 µM | 
NCCc1cc(O)c(O)cc1O | 60.1 µM | 
COc1ccc(C2=C3SC=c4ccccc4=C3ON=C2c2ccccc2)cc1 | > 100 µM | 
CC(=O)NNc1nc(-c2ccc([N+](=O)[O-])cc2)c(C#N)c(=O)n1C | > 100 µM | 
COc1cc(C2CC(c3cccc(Nc4ccncc4)c3)=NN2c2ccc(Cl)cc2)cc(OC)c1OC (stereo not drawn) | 2.88 µM | 1.54 µM
CCCOC(=O)CNC(=O)OC(C)(C)C | > 100 µM | 

The compounds below were run on SW-620 colon (assay: inhibition of tumour cell growth, NCI panel, 48 h).

SMILES | TGI | GI50
Nc1n[nH]c(=O)c2c1c(I)cn2C1OC(CO)C(O)C1O (stereo not drawn) | > 100 µM | 
O=C(Nc1ccc([N+](=O)[O-])cc1[N+](=O)[O-])C(=O)C(C(=O)c1ccc2ccccc2c1)C1OC(=O)c2ccccc21 (stereo not drawn) | 30.9 µM | 
COc1cc(/C=C/C(=O)Oc2ccc(NC(C)=O)cc2)ccc1C(=O)O/C=C/c1ccccc1 | > 100 µM | 
COc1ccc2c(c1)CCCN2CCCCCCCCCCN(CCC(C)C)CCC(C)C | 26.2 µM | 
O=P1(c2ccccc2)Nc2ccccc2SSc2ccccc2N1 | 33.7 µM | 
COc1ccc(-c2nc3ncccn3c2-c2ccc(SC)cc2)cc1 | > 100 µM | 
C[C@H]1C(=O)O[C@@H]2CCN3CC=C(COC(=O)[C@](C)(O)[C@@]1(C)O)[C@H]23 | > 100 µM | 
N=C1C(=N)c2ccccc2-c2ccccc21.N=C1C(=N)c2ccccc2-c2ccccc21.N=C1C(=N)c2ccccc2-c2ccccc21.[Cl-].[Ru+2] | 3.74 µM | 
CCOC(=O)c1c2c(n(Cc3ccccc3)c1C)C(=O)C(=O)c1ccccc1-2 | 1.15 µM | 
CN(C)C(=O)/C=C/c1c[nH]c(=O)[nH]c1=O | > 500 µM | 
CN(C)CCCn1cnc2cc(Cl)c(Cl)cc21 | > 100 µM | 
NCCCn1c2c(c3ccc([N+](=O)[O-])cc3c1=O)C(=O)c1ccccc1-2 | 1.24 µM | 0.0215 µM
O=C1NI(C#Cc2ccccc2)c2ccccc21 | > 100 µM | 
CCc1nc(N)nc(N)c1-c1ccc([N+](C)(C)C)cc1 | > 100 µM | 
Cc1cc2c(cc1C(=O)c1ccc(N)cc1)OCO2 | > 100 µM | 
NCCc1cc(O)c(O)cc1O | 40 µM | 
COc1ccc(C2=C3SC=c4ccccc4=C3ON=C2c2ccccc2)cc1 | > 100 µM | 
CC(=O)NNc1nc(-c2ccc([N+](=O)[O-])cc2)c(C#N)c(=O)n1C | > 100 µM | 
COc1cc(C2CC(c3cccc(Nc4ccncc4)c3)=NN2c2ccc(Cl)cc2)cc(OC)c1OC (stereo not drawn) | 3.19 µM | 1.68 µM
CCCOC(=O)CNC(=O)OC(C)(C)C | > 100 µM | 
CN(C)CCNC(=O)c1cccc2ccc(-c3ccc(F)cc3)nc12 | 21 µM | 

What follows are compounds tested on M14 melanoma (assay: inhibition of tumour cell growth, NCI panel, 48 h).

SMILES | TGI | GI50
Nc1n[nH]c(=O)c2c1c(I)cn2C1OC(CO)C(O)C1O (stereo not drawn) | 18.8 µM | 
O=C(Nc1ccc([N+](=O)[O-])cc1[N+](=O)[O-])C(=O)C(C(=O)c1ccc2ccccc2c1)C1OC(=O)c2ccccc21 (stereo not drawn) | 30.3 µM | 
COc1ccc2c(c1)CCCN2CCCCCCCCCCN(CCC(C)C)CCC(C)C | 27.2 µM | 
COc1ccc(-c2nc3ncccn3c2-c2ccc(SC)cc2)cc1 | 12.2 µM | 
C[C@H]1C(=O)O[C@@H]2CCN3CC=C(COC(=O)[C@](C)(O)[C@@]1(C)O)[C@H]23 | > 100 µM | 
N=C1C(=N)c2ccccc2-c2ccccc21.N=C1C(=N)c2ccccc2-c2ccccc21.N=C1C(=N)c2ccccc2-c2ccccc21.[Cl-].[Ru+2] | 3.72 µM | 
CCOC(=O)c1c2c(n(Cc3ccccc3)c1C)C(=O)C(=O)c1ccccc1-2 | 0.966 µM | 
CN(C)CCCn1cnc2cc(Cl)c(Cl)cc21 | 36.1 µM | 
NCCCn1c2c(c3ccc([N+](=O)[O-])cc3c1=O)C(=O)c1ccccc1-2 | 1.06 µM | 0.161 µM
O=C1NI(C#Cc2ccccc2)c2ccccc21 | > 100 µM | 
CCc1nc(N)nc(N)c1-c1ccc([N+](C)(C)C)cc1 | > 100 µM | 
Cc1cc2c(cc1C(=O)c1ccc(N)cc1)OCO2 | > 100 µM | 
NCCc1cc(O)c(O)cc1O | 92.5 µM | 
COc1ccc(C2=C3SC=c4ccccc4=C3ON=C2c2ccccc2)cc1 | > 100 µM | 
CC(=O)NNc1nc(-c2ccc([N+](=O)[O-])cc2)c(C#N)c(=O)n1C | > 100 µM | 
CCCOC(=O)CNC(=O)OC(C)(C)C | > 100 µM | 

The compounds below were run on HOP-92 NSCLC (assay: inhibition of tumour cell growth, NCI panel, 48 h).

SMILES | TGI | GI50
Nc1n[nH]c(=O)c2c1c(I)cn2C1OC(CO)C(O)C1O (stereo not drawn) | 3.05 µM | 
O=C(Nc1ccc([N+](=O)[O-])cc1[N+](=O)[O-])C(=O)C(C(=O)c1ccc2ccccc2c1)C1OC(=O)c2ccccc21 (stereo not drawn) | 55.6 µM | 
COc1cc(/C=C/C(=O)Oc2ccc(NC(C)=O)cc2)ccc1C(=O)O/C=C/c1ccccc1 | > 100 µM | 
COc1ccc2c(c1)CCCN2CCCCCCCCCCN(CCC(C)C)CCC(C)C | 17 µM | 
O=P1(c2ccccc2)Nc2ccccc2SSc2ccccc2N1 | 30.7 µM | 
COc1ccc(-c2nc3ncccn3c2-c2ccc(SC)cc2)cc1 | 70.4 µM | 
C[C@H]1C(=O)O[C@@H]2CCN3CC=C(COC(=O)[C@](C)(O)[C@@]1(C)O)[C@H]23 | > 100 µM | 
N=C1C(=N)c2ccccc2-c2ccccc21.N=C1C(=N)c2ccccc2-c2ccccc21.N=C1C(=N)c2ccccc2-c2ccccc21.[Cl-].[Ru+2] | 3.09 µM | 1.6 µM
CCOC(=O)c1c2c(n(Cc3ccccc3)c1C)C(=O)C(=O)c1ccccc1-2 | 3.17 µM | 
CN(C)C(=O)/C=C/c1c[nH]c(=O)[nH]c1=O | > 500 µM | 
NCCCn1c2c(c3ccc([N+](=O)[O-])cc3c1=O)C(=O)c1ccccc1-2 | 1.72 µM | 0.34 µM
CCc1nc(N)nc(N)c1-c1ccc([N+](C)(C)C)cc1 | > 100 µM | 
Cc1cc2c(cc1C(=O)c1ccc(N)cc1)OCO2 | > 100 µM | 
NCCc1cc(O)c(O)cc1O | 59.5 µM | 10 µM
COc1ccc(C2=C3SC=c4ccccc4=C3ON=C2c2ccccc2)cc1 | > 100 µM | 
CC(=O)NNc1nc(-c2ccc([N+](=O)[O-])cc2)c(C#N)c(=O)n1C | 33.3 µM | 
COc1cc(C2CC(c3cccc(Nc4ccncc4)c3)=NN2c2ccc(Cl)cc2)cc(OC)c1OC (stereo not drawn) | 2.7 µM | 1.25 µM
